Laboratory results reported in patent publication EP4635944A1, “2-AZABICYCLO[3.1.1]HEPTANE COMPOUND” (Daiichi Sankyo Company, Limited, priority 2022, dated 2024).

These compounds were tested against T1, human OX2R (Homo sapiens, UniProt O43614) (assay: Evaluation of OX2R agonist activity (intracellular calcium, CHO-K1 cells with forced expression of human OX2R)). Settings: CHO-K1 cells expressing human OX2R; 100% = 5 µM of the reference compound; read-out: hOX2R EC50.
T1 construct: host or cells: CHO-K1 (Chinese Hamster Ovary K1)
T1 sequence (O43614 1-444): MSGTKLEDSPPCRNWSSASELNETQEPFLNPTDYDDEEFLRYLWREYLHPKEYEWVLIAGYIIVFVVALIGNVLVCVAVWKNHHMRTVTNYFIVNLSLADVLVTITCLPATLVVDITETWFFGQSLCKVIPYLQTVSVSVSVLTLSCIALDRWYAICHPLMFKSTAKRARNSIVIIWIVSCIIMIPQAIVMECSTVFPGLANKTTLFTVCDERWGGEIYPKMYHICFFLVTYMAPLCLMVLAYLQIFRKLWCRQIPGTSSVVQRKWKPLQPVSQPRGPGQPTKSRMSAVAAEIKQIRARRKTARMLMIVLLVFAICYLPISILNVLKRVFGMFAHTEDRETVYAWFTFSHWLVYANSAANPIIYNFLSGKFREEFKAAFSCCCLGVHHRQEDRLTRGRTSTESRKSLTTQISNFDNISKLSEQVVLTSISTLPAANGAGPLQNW
Type: cell-based
Method: Evaluation of OX2R agonist activity
Chinese Hamster Ovary K1 (CHO-K1) cells (GenScript) with forced expression of human OX2R were seeded onto a 384 well microplate (Corning) at 7500 cells/well and cultured for 24 hours. 20 µL of the loading buffer (25 mM HEPES containing 1.25 mM of Probenecid and 2.5 µg/mL of Fluo 4-AM at final concentration, Hank's balanced salt solution, 0.06% Pluronic F-127, Quenching buffer) in the Calcium Kit II (DOJINDO LABORATORIES) was added, and the microplate was allowed to stand for 30 minutes. A reference compound (Example435 of WO 2019/027058, N-[(2S,3S)-2-[[3-(3,5-difluorophenyl)-2-fluoro-phenyl]methyl]-1-(2-hydroxy-2-methylpropanoyl)pyrrolidin-3-yl]ethanesulfonamide) or the test compound was added in 10 µL, and changes in intracellular calcium ion concentration were measured using FDSS7000EX (Hamamatsu Photonics K.K.) as a fluorescence intensity ratio obtained upon dual wavelength excitation at 480 nm and 540 nm. Note that the reference compound or test compound was dissolved in DMSO (final concentration of DMSO was 0.5%) and diluted with an assay buffer (20 mM HEPES, Hank's balanced salt solution, 0.1% BSA). The difference between the maximum and minimum fluorescence values between 5 and 7 seconds after the addition of the test compound or reference compound was used as the indicator. The value of wells to which the assay buffer containing no test compound was added was defined as 0%, and the value of wells to which 5 µM of the reference compound was added was defined as 100%. The 50% effective concentration (EC50 value) was determined from the values obtained when various concentrations of the test compound were added. […]

EC50 [nM] | Structure (SMILES)
60 | Cc1cccc(-c2cccc(C[C@H]3[C@@H](NS(C)(=O)=O)C4CC(C4)N3C(=O)C(C)(C)O)c2F)c1 [Example 11, N-[(3S,4S)-3-[(2-Fluoro-3'-methyl[biphenyl]-3-yl)methyl]-2-(2-hydroxy-2-methylpropanoyl)-2-azabicyclo[3.1.1]heptan-4-yl]methanesulfonamide]
303 | C[C@H](O)C(=O)N1C2CC(C2)[C@H](NS(C)(=O)=O)[C@@H]1Cc1cccc(-c2cc(F)cc(F)c2)c1F [Example 15, N-{(3S,4S)-2-[(2S)-2-Hydroxypropanoyl]-3-[(2,3',5'-trifluoro[biphenyl]-3-yl)methyl]-2-azabicyclo[3.1.1]heptan-4-yl}methanesulfonamide]
11 | C[C@@H](O)C(=O)N1C2CC(C2)[C@H](NS(C)(=O)=O)[C@@H]1Cc1cccc(-c2cc(F)cc(F)c2)c1F [Example 16, N-{(3S,4S)-2-[(2R)-2-Hydroxypropanoyl]-3-[(2,3',5'-trifluoro[biphenyl]-3-yl)methyl]-2-azabicyclo[3.1.1]heptan-4-yl}methanesulfonamide]
108 | CS(=O)(=O)N[C@H]1C2CC(C2)N(C(=O)[C@H]2CCCO2)[C@H]1Cc1cccc(-c2cc(F)cc(F)c2)c1F [Example 17, N-{(3S,4S)-2-[(2R)-Tetrahydrofuran-2-ylcarbonyl]-3-[(2,3',5'-trifluoro[biphenyl]-3-yl)methyl]-2-azabicyclo[3.1.1]heptan-4-yl}methanesulfonamide]
784 | CC(C)(O)C(=O)N1C2CC(C2)[C@H](NS(C)(=O)=O)[C@@H]1Cc1cccc(-c2cccc(C(F)(F)F)c2)c1F [Example 18, N-[(3S,4S)-3-{[2-Fluoro-3'-(trifluoromethyl)[biphenyl]-3-yl]methyl}-2-(2-hydroxy-2-methylpropanoyl)-2-azabicyclo[3.1.1]heptan-4-yl]methanesulfonamide]
380 | CS(=O)(=O)N[C@H]1C2CC(C2)N(C(=O)C2(F)CC2)[C@H]1Cc1cccc(-c2cc(F)cc(F)c2)c1F [Example 19, N-{(3S,4S)-2-[(1-Fluorocyclopropyl)carbonyl]-3-[(2,3',5'-trifluoro[biphenyl]-3-yl)methyl]-2-azabicyclo[3.1.1]heptan-4-yl}methanesulfonamide]
32 | CS(=O)(=O)N[C@H]1C2CC(C2)N(C(=O)C2CC2)[C@H]1Cc1cccc(-c2cc(F)cc(F)c2)c1F [Example 20, N-{(3S,4S)-2-(Cyclopropylcarbonyl)-3-[(2,3',5'-trifluoro[biphenyl]-3-yl)methyl]-2-azabicyclo[3.1.1]heptan-4-yl}methanesulfonamide]
217 | CC(C)(O)C(=O)N1C2CC(C2)[C@H](NS(C)(=O)=O)[C@@H]1Cc1cccc(-c2cccc(Cl)n2)c1F [Example 21, N-[(3S,4S)-3-[3-(6-Chloropyridin-2-yl)-2-fluorobenzyl]-2-(2-hydroxy-2-methylpropanoyl)-2-azabicyclo[3.1.1]heptan-4-yl]methanesulfonamide]
15 | C[C@@H](O)C(=O)N1C2CC(C2)[C@H](NS(C)(=O)=O)[C@@H]1Cc1cccc(-c2cccc(C(F)F)c2)c1F [Example 24, N-{(3S,4S)-3-{[3'-(Difluoromethyl)-2-fluoro[biphenyl]-3-yl]methyl}-2-[(2R)-2-hydroxypropanoyl]-2-azabicyclo[3.1.1]heptan-4-yl}methanesulfonamide]
35 | CC[C@@H](O)C(=O)N1C2CC(C2)[C@H](NS(C)(=O)=O)[C@@H]1Cc1cccc(-c2cc(F)cc(F)c2)c1F [Example 26, N-{(3S,4S)-2-[(2R)-2-Hydroxybutanoyl]-3-[(2,3',5'-trifluoro[biphenyl]-3-yl)methyl]-2-azabicyclo[3.1.1]heptan-4-yl}methanesulfonamide]
61 | CNC(=O)N1C2CC(C2)[C@H](NS(C)(=O)=O)[C@@H]1Cc1cccc(-c2cc(F)cc(F)c2)c1F [Example 27, (3S,4S)-N-Methyl-4-[(methylsulfonyl)amino]-3-[(2,3',5'-trifluoro[biphenyl]-3-yl)methyl]-2-azabicyclo[3.1.1]heptane-2-carboxamide]
247 | COCC(=O)N1C2CC(C2)[C@H](NS(C)(=O)=O)[C@@H]1Cc1cccc(-c2cc(F)cc(F)c2)c1F [Example 28, N-{(3S,4S)-2-(Methoxyacetyl)-3-[(2,3',5'-trifluoro[biphenyl]-3-yl)methyl]-2-azabicyclo[3.1.1]heptan-4-yl}methanesulfonamide]
253 | CS(=O)(=O)N[C@H]1C2CC(C2)N(C(=O)[C@H]2C[C@@H]2F)[C@H]1Cc1cccc(-c2cc(F)cc(F)c2)c1F [Example 29, N-{(3S,4S)-2-{[(1R,2S)-2-Fluorocyclopropyl]carbonyl}-3-[(2,3',5'-trifluoro[biphenyl]-3-yl)methyl]-2-azabicyclo[3.1.1]heptan-4-yl}methanesulfonamide]
148 | CS(=O)(=O)N[C@H]1C2CC(C2)N(C(=O)[C@@H]2C[C@H]2F)[C@H]1Cc1cccc(-c2cc(F)cc(F)c2)c1F [Example 30, N-{(3S,4S)-2-{[(1S,2R)-2-Fluorocyclopropyl]carbonyl}-3-[(2,3',5'-trifluoro[biphenyl]-3-yl)methyl]-2-azabicyclo[3.1.1]heptan-4-yl}methanesulfonamide]
189 | C[C@@H](O)C(=O)N1C2CC(C2)[C@H](NS(C)(=O)=O)[C@@H]1Cc1cccc(-c2cc(F)cc(C#N)c2)c1F [Example 31, N-{(3S,4S)-3-[(3'-Cyano-2,5'-difluoro[biphenyl]-3-yl)methyl]-2-[(2R)-2-hydroxypropanoyl]-2-azabicyclo[3.1.1]heptan-4-yl}methanesulfonamide]
326 | CS(=O)(=O)N[C@H]1C2CC(C2)N(C(=O)C2(C#N)CC2)[C@H]1Cc1cccc(-c2cc(F)cc(F)c2)c1F [Example 33, N-{(3S,4S)-2-[(1-Cyanocyclopropyl)carbonyl]-3-[(2,3',5'-trifluoro[biphenyl]-3-yl)methyl]-2-azabicyclo[3.1.1]heptan-4-yl}methanesulfonamide]
289 | CS(=O)(=O)N[C@H]1C2CC(C2)N(C(=O)CO)[C@H]1Cc1cccc(-c2cc(F)cc(F)c2)c1F [Example 34, N-{(3S,4S)-2-(Hydroxyacetyl)-3-[(2,3',5'-trifluoro[biphenyl]-3-yl)methyl]-2-azabicyclo[3.1.1]heptan-4-yl}methanesulfonamide]
75 | CC(C)NC(=O)N1C2CC(C2)[C@H](NS(C)(=O)=O)[C@@H]1Cc1cccc(-c2cc(F)cc(F)c2)c1F [Example 35, (3S,4S)-4-[(Methylsulfonyl)amino]-N-(propan-2-yl)-3-[(2,3',5'-trifluoro[biphenyl]-3-yl)methyl]-2-azabicyclo[3.1.1]heptane-2-carboxamide]
18 | CCNC(=O)N1C2CC(C2)[C@H](NS(C)(=O)=O)[C@@H]1Cc1cccc(-c2ccccc2)c1F [Example 37, (3S,4S)-N-Ethyl-3-[(2-fluoro[biphenyl]-3-yl)methyl]-4-[(methylsulfonyl)amino]-2-azabicyclo[3.1.1]heptane-2-carboxamide]
68 | C[C@@H](O)C(=O)N1C2CC(C2)[C@H](NS(C)(=O)=O)[C@@H]1Cc1cccc(-c2cccc3c2OC(F)(F)O3)c1F [Example 38, N-{(3S,4S)-3-[3-(2,2-Difluoro-1,3-benzodioxol-4-yl)-2-fluorobenzyl]-2-[(2R)-2-hydroxypropanoyl]-2-azabicyclo[3.1.1]heptan-4-yl}methanesulfonamide]
94 | CS(=O)(=O)N[C@H]1C2CC(C2)N(C(=O)NCC2CC2)[C@H]1Cc1cccc(-c2cc(F)cc(F)c2)c1F [Example 39, (3S,4S)-N-(Cyclopropylmethyl)-4-[(methylsulfonyl)amino]-3-[(2,3',5'-trifluoro[biphenyl]-3-yl)methyl]-2-azabicyclo[3.1.1]heptane-2-carboxamide]
49 | C[C@@H](O)C(=O)N1C2CC(C2)[C@H](NS(C)(=O)=O)[C@@H]1Cc1cccc(-c2cccc(F)c2)c1F [Example 40, N-{(3S,4S)-3-[(2,3'-Difluoro[biphenyl]-3-yl)methyl]-2-[(2R)-2-hydroxypropanoyl]-2-azabicyclo[3.1.1]heptan-4-yl}methanesulfonamide]
31 | C[C@@H](O)C(=O)N1C2CC(C2)[C@H](NS(C)(=O)=O)[C@@H]1Cc1cccc(-c2cccc(C3CC3)c2)c1F [Example 41, N-{(3S,4S)-3-[(3'-Cyclopropyl-2-fluoro[biphenyl]-3-yl)methyl]-2-[(2R)-2-hydroxypropanoyl]-2-azabicyclo[3.1.1]heptan-4-yl}methanesulfonamide]
